From patent publication US20210261569A1, “FUSED HETEROCYCLIC DERIVATIVES HAVING SELECTIVE BACE1 INHIBITORY ACTIVITY” (Shionogi & Co., Ltd., priority 2018, published 2021)

Key:
Metabolic stability test = format: in vitro ADME; conditions: human liver microsomes 0.5 mg protein/mL, NADPH, 37° C.
Protocol: Using a commercially available pooled human liver microsomes, a compound of the present invention was reacted for a constant time, a remaining rate was calculated by comparing a reacted sample and an unreacted sample, thereby, a degree of metabolism in liver was assessed.
A reaction was performed (oxidative reaction) at 37° C. for 0 minute or 30 minutes in the presence of 1 mmol/L NADPH in 0.2 mL of a buffer (50 mmol/L Tris-HCl pH 7.4, 150 mmol/L potassium chloride, 10 mmol/L magnesium chloride) containing 0.5 mg protein/mL of human liver microsomes. After the reaction, 50 μL of the reaction solution was added to 100 μL of a methanol/acetonitrile=1/1 (v/v), mixed and centrifuged at 3000 rpm for 15 minutes. The compound of the present invention in the supernatant was quantified by LC/MS/MS or solid phase extraction (SPE)/MS, and a remaining amount of the compound of the present invention after the reaction was calculated, letting a compound amount at 0 minute reaction time to be 100%.

[1] = target: T1, human ether-a-go-go related gene (hERG) channel (Homo sapiens, UniProt Q12809); assay: hERG test (whole cell patch clamp, QPatch); format: cell-based; conditions: CHO cells expressing hERG, tail peak current
T1 construct: expressed in transfected cells; host or cells: CHO cells
T1 sequence (Q12809 whole entry): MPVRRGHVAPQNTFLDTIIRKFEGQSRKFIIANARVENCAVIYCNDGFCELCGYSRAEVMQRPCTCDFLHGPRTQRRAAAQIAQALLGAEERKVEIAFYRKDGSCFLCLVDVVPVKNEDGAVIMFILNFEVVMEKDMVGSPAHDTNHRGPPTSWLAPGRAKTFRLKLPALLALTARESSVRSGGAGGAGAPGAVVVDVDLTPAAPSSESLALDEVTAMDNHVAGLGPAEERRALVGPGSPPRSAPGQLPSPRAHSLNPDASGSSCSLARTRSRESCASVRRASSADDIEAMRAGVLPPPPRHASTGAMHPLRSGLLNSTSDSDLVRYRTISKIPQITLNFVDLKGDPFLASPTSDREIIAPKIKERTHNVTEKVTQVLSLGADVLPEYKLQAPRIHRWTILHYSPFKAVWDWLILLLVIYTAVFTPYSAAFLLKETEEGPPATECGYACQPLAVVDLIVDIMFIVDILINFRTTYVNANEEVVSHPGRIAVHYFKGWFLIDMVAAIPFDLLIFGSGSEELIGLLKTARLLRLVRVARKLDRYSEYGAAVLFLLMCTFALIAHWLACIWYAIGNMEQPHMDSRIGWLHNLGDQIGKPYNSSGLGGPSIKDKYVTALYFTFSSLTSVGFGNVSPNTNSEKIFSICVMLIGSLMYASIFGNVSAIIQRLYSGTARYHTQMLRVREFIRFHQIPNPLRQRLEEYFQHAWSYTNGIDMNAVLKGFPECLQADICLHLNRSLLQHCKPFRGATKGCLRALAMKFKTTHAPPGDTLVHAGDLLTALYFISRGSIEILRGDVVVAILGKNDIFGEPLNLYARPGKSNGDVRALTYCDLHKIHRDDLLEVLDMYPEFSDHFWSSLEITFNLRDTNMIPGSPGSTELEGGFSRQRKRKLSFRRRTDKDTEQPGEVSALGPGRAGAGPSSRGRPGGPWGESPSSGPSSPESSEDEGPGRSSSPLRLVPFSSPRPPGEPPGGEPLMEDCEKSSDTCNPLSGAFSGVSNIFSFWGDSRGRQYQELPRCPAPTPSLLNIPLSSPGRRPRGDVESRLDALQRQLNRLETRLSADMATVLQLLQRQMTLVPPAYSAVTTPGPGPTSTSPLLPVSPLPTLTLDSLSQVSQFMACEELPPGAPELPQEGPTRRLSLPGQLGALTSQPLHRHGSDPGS
Source text: For the purpose of assessing risk of an electrocardiogram QT interval prolongation, effects on delayed rectifier K+ current (IKr), which plays an important role in the ventricular repolarization process of the compound of the present invention, was studied using CHO cells expressing human ether-a-go-go related gene (hERG) channel.
A cell was retained at a membrane potential of −80 mV by whole cell patch clamp method using an automated patch clamp system (QPatch; Sophion Bioscience A/S). After application of leak potential at −50 mV, IKr induced by depolarization pulse stimulation at +20 mV for 2 seconds and, further, repolarization pulse stimulation at −50 mV for 2 seconds was recorded.
After the generated current was stabilized, extracellular solution (NaCl: 145 mmol/L, KCl: 4 mmol/L, CaCl2:2 mmol/L MgCl2:1 mmol/L, 1 mmol/L, HEPES (4-(2-hydroxyethyl)-1-piperazineethanesulfonic acid: 10 mmol/L, glucose:10 mmol/L pH=7.4) in which the compound of the present invention have been dissolved at an objective concentration was applied to the cell under the room temperature condition for 10 minutes. From the recording IKr, an absolute value of the tail peak current was measured based on the current value at the resting membrane potential using an analysis software (QPatch assay software; Sophion Bioscience A/S). Further, the % inhibition relative to the tail peak current before application of the compound of the present invention was calculated, and compared with the vehicle-applied group (0.1% dimethyl sulfoxide solution) to assess influence of the compound of the present invention on IKr.

[2] = target: T2, P-gp (MDR1 expressing LLC-PK1 cells) (Homo sapiens, UniProt P08183); assay: P-gp substrate test; format: in vitro ADME; conditions: MDR1 expressing LLC-PK1 cells vs parent LLC-PK1 cells
T2 construct: host or cells: LLC-PK1 (porcine kidney) cells
T2 sequence (P08183 whole entry): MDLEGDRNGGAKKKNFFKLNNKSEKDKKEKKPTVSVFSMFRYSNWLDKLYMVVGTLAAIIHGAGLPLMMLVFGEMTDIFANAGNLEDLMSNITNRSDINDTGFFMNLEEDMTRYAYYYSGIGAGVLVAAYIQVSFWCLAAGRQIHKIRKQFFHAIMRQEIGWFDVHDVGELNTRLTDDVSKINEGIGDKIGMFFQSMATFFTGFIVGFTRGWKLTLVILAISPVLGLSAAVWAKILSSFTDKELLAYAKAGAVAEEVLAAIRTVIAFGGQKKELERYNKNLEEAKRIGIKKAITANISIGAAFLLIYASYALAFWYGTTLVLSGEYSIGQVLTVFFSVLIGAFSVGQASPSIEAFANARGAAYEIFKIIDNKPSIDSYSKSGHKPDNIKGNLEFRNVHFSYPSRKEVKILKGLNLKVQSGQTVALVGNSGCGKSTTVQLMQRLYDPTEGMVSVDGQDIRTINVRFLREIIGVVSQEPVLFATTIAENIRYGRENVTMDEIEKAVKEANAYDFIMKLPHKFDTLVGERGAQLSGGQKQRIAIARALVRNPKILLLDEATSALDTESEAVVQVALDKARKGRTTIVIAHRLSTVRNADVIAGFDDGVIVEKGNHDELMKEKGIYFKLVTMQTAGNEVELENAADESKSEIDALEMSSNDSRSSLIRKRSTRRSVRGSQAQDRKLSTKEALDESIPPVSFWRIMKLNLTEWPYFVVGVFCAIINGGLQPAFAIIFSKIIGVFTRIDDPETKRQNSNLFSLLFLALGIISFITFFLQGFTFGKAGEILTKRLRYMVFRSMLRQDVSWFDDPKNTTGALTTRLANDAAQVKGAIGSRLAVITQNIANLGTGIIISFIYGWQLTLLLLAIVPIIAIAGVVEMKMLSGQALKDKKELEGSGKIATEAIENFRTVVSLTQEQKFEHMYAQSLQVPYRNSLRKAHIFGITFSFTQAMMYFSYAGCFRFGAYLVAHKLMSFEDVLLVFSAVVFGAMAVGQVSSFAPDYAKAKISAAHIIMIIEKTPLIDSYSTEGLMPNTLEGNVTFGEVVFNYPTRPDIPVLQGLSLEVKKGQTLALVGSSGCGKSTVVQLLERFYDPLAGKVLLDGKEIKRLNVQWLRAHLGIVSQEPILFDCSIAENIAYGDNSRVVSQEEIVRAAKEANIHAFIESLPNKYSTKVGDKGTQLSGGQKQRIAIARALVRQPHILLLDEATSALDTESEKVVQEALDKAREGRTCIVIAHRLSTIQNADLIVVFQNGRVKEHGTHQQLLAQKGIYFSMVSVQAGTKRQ
Protocol: 1. MDR1 expressing LLC-PK1 cells and its parent cells were routinely cultured in Medium A (Medium 199 (Invitrogen) supplemented with 10% FBS (Invitrogen), gentamycin (0.05 mg/mL, Invitrogen) and hygromycin B (100 μg/mL, Invitrogen)) at 37° C. under 5% CO2/95% 02 gasses. For the transport experiments, these cells were seeded on Transwell (Registered trademark) insert (96-well, pore size: 0.4 μm, Coaster) at a density of 1.4×10^4 cells/insert and added Medium B (Medium 199 supplemented with 10% FBS and gentamycin at 0.05 mg/mL) to the feeder tray. These cells were incubated in a CO2 incubator (5% CO2/95% 02 gasses, 37° C.) and replace apical and basolateral culture medium every 48-72 hr after seeding. These cells were used between 4 and 6 days after seeding. 2. The medium in the culture insert seeded with MDR1 expressing cells or parent cells were removed by aspiration and rinsed by HBSS. The apical side (140 μL) or basolateral side (175 μL) was replaced with transport buffer containing reference substrates and the present invention and then an aliquot (50 μL) of transport buffer in the donor side was collected to estimate initial concentration of reference substrate and the present invention. After incubation for designed time at 37° C., an aliquot (50 μL) of transport buffer in the donor and receiver side were collected. Assay was performed by duplicate or triplicate. 3. Reference substrate and the present invention in the aliquot was quantified by LC/MS/MS.
Permeated amounts across monolayers of MDR1 expressing and parent cells were determined, and permeation coefficients (Pe) were calculated using Excel 2003 from the following equitation:
Pe (cm/sec)=Permeated amount (pmol)/area of cell membrane (cm^2)/initial concentration (nM)/incubation time (sec) Where, permeated amount was calculated from permeation concentration (nM, concentration of the receiver side) of the substance after incubation for the defined time (sec) multiplied by volume. (mL) and area of cell membrane was used 0.1433 (cm2). The efflux ratio was calculated using the following equation:
Efflux Ratio=Basolateral-to-Apical Pe/Apical-to-Basolateral Pe
The net flux was calculated using the following equation:
Net flux=Efflux Ratio in MDR1 expressing cells/Efflux Ratio in parent cells

Compound | Remaining rate (%) at 30 min (Metabolic stability test) | hERG inhibition (%) at 3 μM [1] | P-gp ER ratio [2]
C[C@@H]1OC[C@H]2[C@@H]1OC(N)=N[C@]2(CF)c1cc(NC(=O)c2cnc(OC(F)F)cn2)ccc1F [Compound I-087] | 85% | 28.7% | 5.8
NC1=N[C@](CF)(c2cc(NC(=O)c3cnc(OCF)cn3)ccc2F)[C@H]2CO[C@@H](CF)[C@H]2O1 [Compound I-112] | 91% | 5% | 5.3
CC1(C)OC[C@H]2[C@@H]1OC(N)=N[C@]2(CF)c1cc(NC(=O)c2cnc(OCF)cn2)ccc1F [Compound I-096] | 65% | 19.4% | 3.3
NC1=N[C@](CF)(c2cc(NC(=O)c3cnc(OCF)cn3)ccc2F)[C@H]2[C@H](CF)OC[C@H]2O1 [Compound I-114] | 102% | 12.4% | 2.1
